Patent publication US20240209388A1, “EXPRESSION VECTOR OF GLYPHOSATE-RESISTANT GENES GR79 AND GAT, HIGH GLYPHOSATE-RESISTANT CORN, AND DETECTION METHOD THEREFOR” (BIOTECHNOLOGY RESEARCH INSTITUTE, CHINESE ACADEMY OF …, priority 2021, published 2024)
Entries after “also recorded” stand apart in the source; their conditions may differ. Read-outs that look alike come from different tables or passages of the source.

Tests used:
[1] = tested on: transgenic cotton; settings: T1 generation, solution diluted to 1/200 (0.205 g/100 ml), 450 L/hectare; cited from earlier work
[2] = tested on: bivalent GAT and GR79 transgenic herbicide-resistant corn; format: in vivo; settings: high dose on the pesticide registration tag, four to six leaves, surveyed 1, 2, 4 weeks after application
Description: (§1) transgenic corn to non-target herbicide 3 types of herbicides were set in this test, i.e., mesotrione· propisochlor atrazine SC (3.5% mesotrione, 15% propisochlor, and 15% atrazine) commonly used in corn field, glufosinate-ammonium (20% active ingredient) sensitive to corn, and haloxyfop-R-methyl (10.8% active ingredient), respectively. 4 treatments were set: (1) free of spraying herbicide; (2) spraying mesotrione· propisochlor atrazine SC; (3) spraying glufosinate-ammonium; and (4) spraying haloxyfop-R-methyl. The spraying dose is a high dose on the pesticide registration tag. Stems and leaves were sprayed when corn grew to four to six leaves. Seedling rate and symptom of pesticide damage were surveyed 1, 2, and 4 weeks later after application, respectively.

[3] = tested on: non-transgenic control corn; format: in vivo; settings: high dose on the pesticide registration tag, four to six leaves, surveyed 1, 2, 4 weeks after application
Description: as §1

[4] = tested on: transgenic corn GG2; experiment: Field glyphosate tolerance of the transgenic corn event GG2; format: in vivo, Zea mays; settings: for plant height 1 week BC4 / plant height 1 week BC5: 1 week after application; for plant height 2 weeks BC4 / plant height 2 weeks BC5: 2 weeks after application; for plant height 4 weeks BC4 / plant height 4 weeks BC5: 4 weeks after application
Procedure: Field herbicide tolerance of transgenic corn was tested in accordance with the Test for Environmental Safety of Transgenic Plant and its Products Part 1 of Herbicide-Resistant Corn: herbicide Tolerance (No. 953 bulletin-11.1-2007 of the Ministry of Agriculture and Rural Affairs).
The test material was the transgenic corn GG2, and the corresponding non-transgenic corn. The herbicide was glyphosate. […] An isolation belt (a width of 1.0 m) was set among the blocks. Treatments include: transgenic corn not sprayed with a herbicide, transgenic corn sprayed with a target herbicide (glyphosate), non-transgenic corn not sprayed with a herbicide, and non-transgenic corn sprayed with a target herbicide (glyphosate). The application amount of the herbicide was 1-fold, 2 times, and 4 times the medium dose (active ingredient: 900 g/hectare) on the pesticide registration tag, respectively. The herbicide was applied at the four to five-leaf stage of corn. The rate of survival, plant height, and symptom of pesticide damage were surveyed and recorded 1, 2, and 4 weeks later after application, respectively. The symptom of pesticide damage was graded according to GB/T 19780.42. Glyphosate in the transgenic corn GG2, and in its corresponding transgenic control, and non-transgenic control was identified.

[5] = tested on: bivalent GAT and GR79 transgenic corn; experiment: Screening of high glyphosate-resistant events of bivalent GAT and GR79 transgenic corn; format: in vivo, Zea mays; settings: for transformation events free of symptom of pesticide damage: 4 weeks after application
Procedure: 2 times the medium dose of glyphosate (active ingredient: 1800 g/hectare) was continuously applied, and survey was conducted 4 weeks later after application, 63 transformation events were free of symptom of pesticide damage. The T2 generation of materials of the screened 63 transformation events were sown and sprayed with glyphosate at the four to five-leaf stage in a spraying amount of 1-fold, 2 times, and 4 times the medium dose (active ingredient: 900 g/hectare) on the pesticide registration tag. The rate of survival and symptom of pesticide damage of each transformation event were surveyed and recorded 4 weeks later after application. 47 transformation events were free of symptom of pesticide damage after sprayed with 4 times the medium dose of glyphosate and thus, were high glyphosate-resistant materials, accounting for 61.84% of the 76 positive transgenic materials. The screening concentration continued to be increased; when it was up to 8 times (active ingredient: 7200 g/hectare) the medium dose, 6 transformation events were not affected.

[6] = tested on: monovalent GAT transgenic corn; experiment: Screening of high glyphosate-resistant events of monovalent GAT transgenic corn; format: in vivo, Zea mays
Description: To determine the effect of the combined use of double genes on high glyphosate tolerance, the transgenic corn transformed with the single gene GAT was subjected to glyphosate tolerance test according to the same screening process, 8 transformation events which could be resistant to 4 times glyphosate were obtained finally, accounting for 21.05% of the 38 positive transgenic materials. By comparison of the two, the bivalent GAT and GR79 transgenic glyphosate-resistant corn was easier to obtain high glyphosate-resistant materials.

[7] = tested on: transgenic maize; settings: AM79 single-gene transgenic maize; cited from earlier work
[8] = GG2 BC4, 1-fold the medium dose
[9] = GG2 BC4, 2 times the medium dose
[10] = GG2 BC4, 4 times the medium dose
[11] = GG2 BC5, 1-fold the medium dose
[12] = GG2 BC5, 2 times the medium dose
[13] = GG2 BC5, 4 times the medium dose
[14] = 8 times the medium dose (active ingredient: 7200 g/hectare)

## CC(C)N.O=C(O)CNCP(=O)(O)O [glyphosate isopropylamine]
[1]
  survival rate: more than 84%

## CP(=O)(O)CCC(N)C(=O)O (centres unmarked) [glufosinate-ammonium]
[2]
  seedling rate and symptom of pesticide damage: died
[2]; listed as Glufosinate-ammonium
  seedling rate and symptom of pesticide damage: sensitive
[3]
  seedling rate and symptom of pesticide damage: died

## O=C(O)CNCP(=O)(O)O [glyphosate]
[4]; GG2, 1-fold, 2 and 4 times the medium dose
  plant height versus transgenic corn not sprayed: no significant difference
[4]; GG2, 1-fold, 2 and 4 times the medium dose, each stage, two consecutive generations
  symptom of damage: free of symptom of damage
[4]; GG2 BC4, 1-fold the medium dose (900 g active ingredient/hectare)
  plant height 1 week BC4: 58.52 cm
[4]; [8]
  plant height 2 weeks BC4: 85.59 cm
  plant height 4 weeks BC4: 158.39 cm
[4]; [9]
  plant height 1 week BC4: 51.24 cm
  plant height 2 weeks BC4: 79.38 cm
  plant height 4 weeks BC4: 147.75 cm
[4]; [10]
  plant height 1 week BC4: 59.81 cm
  plant height 2 weeks BC4: 88.41 cm
  plant height 4 weeks BC4: 158.53 cm
[4]; [11]
  plant height 1 week BC5: 33.87 cm
  plant height 2 weeks BC5: 51.71 cm
  plant height 4 weeks BC5: 136.37 cm
[4]; [12]
  plant height 1 week BC5: 33.11 cm
  plant height 2 weeks BC5: 54.29 cm
  plant height 4 weeks BC5: 139.65 cm
[4]; [13]
  plant height 1 week BC5: 34.65 cm
  plant height 2 weeks BC5: 53.78 cm
  plant height 4 weeks BC5: 137.39 cm
[4]; medium dose 900 g active ingredient/hectare
  glyphosate dose GG2 is resistant to: 4 times the medium dose
[5]; 4 times the medium dose
  high glyphosate-resistant materials as share of the 76 positive transgenic materials: 61.84%
[5]; [14]
  transformation events not affected: 6
[5]; GG2 transformation event
  harm by glyphosate during multi-generation screening: not endangered by glyphosate
[5]; T1, 2 times the medium dose (active ingredient: 1800 g/hectare)
  transformation events free of symptom of pesticide damage: 63
[5]; T1 generation of 76 double-positive events, four-leaf stage, medium dose (active ingredient: 900 g/hectare)
  survival transformation events: 72
[5]; T1 generation of 76 double-positive events, medium dose (active ingredient: 900 g/hectare)
  rate of zero symptom of pesticide damage: 94.7%
[5]; T2 of 63 events, 4 times the medium dose
  transformation events free of symptom of pesticide damage: 47
[6]; 4 times glyphosate
  resistant events as share of the 38 positive transgenic materials: 21.05%
[6]; [14]
  plant survival: no survival plant
[6]; of 38 positive single-gene GAT materials, 4 times the medium dose
  transformation events resistant to 4 times glyphosate: 8
[6]; partial high-resistant GAT events, a few days after 4 times the medium dose
  leaf symptoms of pesticide damage: mild symptoms of herbicide damage; also recorded: mild symptoms of pesticide damage
[7]
  tolerated dose (active ingredient): 3600 g/hectare

## COC(=O)[C@@H](C)Oc1ccc(Oc2ncc(C(F)(F)F)cc2Cl)cc1 [haloxyfop-R-methyl]
[3]
  seedling rate and symptom of pesticide damage: died
